Assay results: US12313635B2, “Biomarker for thoracic aortic aneurysm” (THE REGENTS OF THE UNIVERSITY OF CALIFORNIA, priority 2018, dated 2025)

What was measured:
eNOS = test: Aortic superoxide production and eNOS uncoupling activity (L-NAME-sensitive superoxide) by electron spin resonance; type: in vivo, mice
Procedure: (§1) FA treatment started at 4 weeks of age, and lasted through the entire study period of 8 weeks till harvest.
Aortic superoxide was measured by ESR as previously described^19-22, 26-33. Briefly, freshly isolated aortas were homogenized on icein lysis buffer containing 1:100 protease inhibitor cocktail, and centrifuged at 12,000 g for 15 min. Protein content of the supernatant was determined using a protein assay kit (Bio-Rad, #500-0113, #500-0114, #500-0115). […]
(§2) Four weeks old heterozygous Fbn1^C1039G/+ male animals were treated with TGFβ neutralizing antibody (anti-TGFβ, clone 1D11, Bio X Cell) or isotype (IgG, clone MOPC21, Bio X Cell) as previously shown^40. […] Aortic superoxide production and eNOS uncoupling activity were determined after 4 weeks injection as described above.
Firstly, ESR was used to measure the aortic superoxide production with or without L-NAME, an inhibitor for NOS. If eNOS is functional and coupled, its inhibition by L-NAME will increase the measured superoxide due to lack of scavenging effects of NO on superoxide. However, if eNOS is dysfunctional and uncoupled, it produces superoxide and the inhibition with L-NAME will reduce measured superoxide.

DHFR [1] = test: Western blotting of DHFR and eNOS expression in aortic endothelial cells; type: in vivo, mice; settings: aortic ECs of Fbn1^+/+ and Fbn1^C1039G/+ animals after FA treatment
Procedure: as §1
Western blotting was performed following standard protocols, using 12.5% SDS/PAGE gel and nitrocellulose membranes. Primary antibodies and their dilutions used were: DHFR (1:500, Novus Biologicals, H00001719-MO1), β-actin (1:3000, Sigma-Aldrich, A2066), eNOS (1:2000, BD Transduction Laboratories, 610297), TGFβ (1:500, Abcam, ab92486), NOX4 (1:300, Novus Biologicals, NB110-58849SS), and GTPCH 1 (1:500, Abbiotec, 250680).
Endothelial cells (ECs) were isolated from freshly prepared aortas, Western blot was used to detect DHFR expression in aortic ECs and HPLC was performed to assess DHFR activity in the isolated ECs and the denuded aortas of the Fbn1^+/+ and Fbn1^C1039G/+ animals. […] As shown in FIGS. 6D & 6E, DHFR activity was measured via HPLC from both the isolated ECs (FIG. 6D) and the denuded aortas (FIG. 6E).

[2] = test system: Fbn1^C1039G/+ Marfan Syndrome (MFS) mice; test: Ultrasound imaging (echocardiography) of aortic root and abdominal aorta diameters; type: in vivo; settings: FA food (15 mg/kg/day from 4 weeks of age) vs chow diet
Source text: All experimental procedures were approved by the Institutional Animal Care and Usage committee at the University of California, Los Angeles (UCLA). Original heterozygous Fbn1^C1039G/+ male animals were purchased from Jackson Labs (Bar Harbor, ME, Strain B6.129-Fbn1^tm1Hcd/J, stock #012885). Heterozygous mice develop proximal aortic aneurysms, mitral valve thickenings, pulmonary alveolar septation defects, mild thoracic kyphosis, and skeletal myopathy, but 90% reportedly live to one year of age. This strain was backcrossed to C57BL/6 for more than nine generations by the donating laboratory^14. All pups were genotyped using PCR (FIG. 2) as per instructions by Jackson Labs.
as §1
Animals were anesthetized with isoflurane (˜[…]), and secured onto a temperature controlled table to maintain temperature at 37° C. Hair from the abdomen and the chest were removed with a hair removal cream (Nair). […] All images were recorded and saved for later offline aortic dimension analysis.
as §2

DHFR [3] = test: DHFR activity by HPLC in isolated ECs and denuded aortas; type: in vivo; settings: Fbn1^C1039G/+ and Fbn1^+/+ mice, oral FA treatment
Procedure: as §1
DHFR activity was measured from isolated EC or denuded aorticring lysates as previously described^19, 22, 26. Briefly, lysates were incubated in a DHFR assay buffer (0.1 mol/L potassium phosphate dibasic, 1 mmol/L DTT, 0.5 mmol/L KCl, 1 mmol/L EDTA, and 20 mmol/L sodium ascorbate at pH 7.4) with NADPH (200 μmol/L) and the substrate dihydrofolate (50 μmol/L) at 37° C. for 20 min in the dark. The product of the reaction, tetrahydrofolate (THF), was measured using a HPLC system (SHIMADZU AMERICA INC, Carlsbad, CA, USA) with a C-18 column (Alltech, Deerfield, MA, USA) using water based mobile phase consisting of 7% acetonitrile and 5 mmol/L of potassium phosphate dibasic at pH 2.3. The signal was detected using a fluorescent detector at 295 nm excitation and 365 nm emission. The THF content was calculated against a standard curve prepared using THF solutions in assay buffer. Data are presented as nmol production of THF per min per mg protein.

H4B = test: Aortic and plasma tetrahydrobiopterin (H4B) levels by HPLC; type: in vivo; settings: Fbn1^+/+ and Fbn1^C1039G/+ mice, oral FA vs chow diet
Procedure: as §1
Aortic H4B and plasma H4B were measured using HPLC as previously described^19-22, 26, 27, 32, 33, 35-37. For the aorta, freshly isolated aortas were lysed in H4B lysis buffer (0.1 M phosphoric acid, 1 mM EDTA, 10 mM dl-dithiothreitol) and then centrifuged at 12,000 g for 3 min at 4° C. in the dark. For plasma, equal volumes of plasma and H4B lysis buffer were mixed and incubated on ice for 20 min in the dark and then centrifuged at 12,000 g for 3 min at 4° C. in the dark. The supernatant for both the aorta and plasma was subjected to oxidation in acidic (0.2 M trichloroacetic acid with 2.5% 12 and 10% KI) and alkalytic solutions (0.1 M NaOH with 0.9% 12 and 1.5% KI). After centrifugation, 10 μl of the supernatant was injected into a HPLC system equipped with a fluorescent detector (SHIMADZU AMERICA INC, Carlsbad, CA, USA). Excitation and emission wavelengths of 350 nm and 450 nm were used to detect H4B and its oxidized species. H4B concentration was calculated as previously described ^38, 39.

[4] = test system: NO bioavailability in aortic tissues; test: Aortic NO bioavailability by electron spin resonance; type: in vivo; settings: aortas of Fbn1^C1039G/+ mice, age 8 and 12 weeks, oral FA
Procedure: FA treatment started at 4 weeks of age, and lasted through the entire study period of 8 weeks till harvest. Aortic N O production was also measured using ESR as previous described^19-22, 26-29, 32-34. Briefly, freshly isolated aortas were cut into 2 mm rings, and then incubated in freshly prepared NO specific spin trap Fe^2+(DETC)2 (0.5 mmol/L) in nitrogen bubbled, modified Krebs/HEPES buffer (as described above) at 37° C. for 60 min, in the presence of calcium ionophore A23187 (10 μmol/L). The aortic rings were then snap frozen in liquid nitrogen and loaded into a finger Dewarfor measurement with ESR. The instrument settings were as the following: Center field, 3440; Sweep width, 100 G: microwave frequency, 9.796 GHz; microwave power 13.26 mW; modulation amplitude, 9.82 G; 512 points of resolution; and receiver gain 356.

[5] = test system: Ang II infused hph-1 mice and Ang II-infused apoE null mice; settings: cited from earlier work

## Nc1nc2ncc(CNc3ccc(C(=O)N[C@@H](CCC(=O)O)C(=O)O)cc3)nc2c(=O)[nH]1 [FA, folic acid]
eNOS; aortas of Fbn1^C1039G/+ mice at 8 and 12 week old, oral FA
  L-NAME-sensitive superoxide production (eNOS uncoupling activity): completely attenuated
eNOS; aortas of Fbn1^C1039G/+ mice, FA diet
  superoxide production: reduce superoxide production
DHFR [1]
  expression of DHFR: increased
[2]
  size (diameter) of abdominal aortas: substantially smaller
  size (diameter) of aortic roots: substantially smaller
DHFR [3]
  DHFR activity in the denuded aortas: substantially increased
  DHFR activity in the isolated ECs: substantially increased
H4B
  H4B levels in plasma: substantially restored
  H4B levels in the aortas: substantially restored
[4]
  NO bioavailability: markedly improved
[5]; Ang II infused hph-1 mice and Ang II-infused apoE null mice, oral administration
  AAA formation: completely or largely attenuated
[5]; angiotensin II infused hph-1 and apoE null mice (AAA models)
  plasma and tissue H4B levels: restored
